Legend:
Experiment in all cases: relative viability (nuclei count vs DMSO), 5 days (fraction); higher = more cells survive
Quizartinib + Luminespib = compound: CC(C)(C)c1cc(NC(=O)Nc2ccc(-c3cn4c(n3)sc3cc(OCCN5CCOCC5)ccc34)cc2)no1 [Quizartinib] + CCNC(=O)c1noc(-c2cc(C(C)C)c(O)cc2O)c1-c1ccc(CN2CCOCC2)cc1 [Luminespib] (partner 0.01 µM)
Procedure, shortened: (§1)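 Lung cancer cell lines were pin-tool dosed in 1536-well plates on the day after seeding, with either a lone drug or a fixed anchor-drug dose plus five library-drug doses (not always all listed) in √10 steps. Nuclei were counted on 4× images after 5 days. Relative viability is the ratio of treated-well to vehicle-well nuclei counts, with each value a median of duplicate plates.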

YM155 + AZD7762 = compound: COCC[n+]1c2c(n(Cc3cnccn3)c1C)C(=O)c1ccccc1C2=O [YM155] + NC(=O)Nc1cc(-c2cccc(F)c2)sc1C(=O)N[C@H]1CCCNC1 [AZD7762] (partner 0.2 µM)
Procedure, shortened: as §1

Quizartinib + Pictilisib = compound: CC(C)(C)c1cc(NC(=O)Nc2ccc(-c3cn4c(n3)sc3cc(OCCN5CCOCC5)ccc34)cc2)no1 [Quizartinib] + CS(=O)(=O)N1CCN(Cc2cc3nc(-c4cccc5[nH]ncc45)nc(N4CCOCC4)c3s2)CC1 [Pictilisib] (partner 1 µM)
Procedure, shortened: as §1

YM155 + OSI-027 = compound: COCC[n+]1c2c(n(Cc3cnccn3)c1C)C(=O)c1ccccc1C2=O [YM155] + COc1cccc2cc(-c3nc([C@H]4CC[C@H](C(=O)O)CC4)n4ncnc(N)c34)[nH]c12 [OSI-027] (partner 0.5 µM)
Procedure, shortened: as §1

Cell Line | relative viability (Quizartinib + Luminespib; first compound 0.001 µM) | relative viability (Quizartinib + Luminespib; first compound 0.003162 µM) | relative viability (Quizartinib + Luminespib; first compound 0.01 µM) | relative viability (Quizartinib + Luminespib; first compound 0.03162 µM) | relative viability (Quizartinib + Luminespib; first compound 0.1 µM) | relative viability (YM155 + AZD7762; first compound 0.002 µM) | relative viability (YM155 + AZD7762; first compound 0.006325 µM) | relative viability (YM155 + AZD7762; first compound 0.02 µM) | relative viability (YM155 + AZD7762; first compound 0.06325 µM) | relative viability (Quizartinib + Pictilisib; first compound 0.001 µM) | relative viability (Quizartinib + Pictilisib; first compound 0.003162 µM) | relative viability (Quizartinib + Pictilisib; first compound 0.01 µM) | relative viability (Quizartinib + Pictilisib; first compound 0.03162 µM) | relative viability (Quizartinib + Pictilisib; first compound 0.1 µM) | relative viability (YM155 + OSI-027; first compound 0.002 µM) | relative viability (YM155 + OSI-027; first compound 0.006325 µM) | relative viability (YM155 + OSI-027; first compound 0.02 µM) | relative viability (YM155 + OSI-027; first compound 0.06325 µM)
NCI-H2405 | 0.641 | 0.747 | 0.562 | 0.75 | 0.724 | 0.609 | 0.656 | 0.578 | 0.39 | 0.614 | 0.442 | 0.327 | 0.44 | 0.503 | 0.625 | 0.613 | 0.616 | 0.465
EPLC-272H | 0.439 | 0.418 | 0.44 | 0.399 | 0.168 | 0.227 | 0.296 | 0.196 | 0.253 | 0.314 | 0.391 | 0.405 | 0.323 | 0.398 | 0.287 | 0.312 | 0.286 | 0.251
LCLC-103H | 1 | 0.896 | 0.989 | 1.04 | 0.961 | 0.752 | 0.821 | 0.832 | 0.781 | 0.535 | 0.733 | 0.591 | 0.547 | 0.546 | 0.465 | 0.436 | 0.408 | 0.464
NCI-H2087 |  | 0.206 | 0.174 | 0.177 | 0.156 | 1.18 | 1.29 | 1.26 | 1.04 | 0.393 | 0.867 | 0.916 | 0.665 | 0.81 | 0.492 | 0.567 | 0.715 | 0.618
HCC-15 |  | 0.281 | 0.197 | 0.346 | 0.33 | 0.661 | 1.28 | 1.19 | 1.17 | 0.433 | 0.788 | 0.755 | 0.607 | 0.707 | 0.693 | 0.758 | 0.721 | 0.534
NCI-H1915 | 0.786 | 0.714 | 0.828 | 0.829 | 0.815 | 0.728 | 0.659 | 0.662 | 0.553 | 0.838 | 0.875 | 0.698 | 1 | 1.05 | 0.585 | 0.593 | 0.613 | 0.574
NCI-H1666 | 0.977 | 1.05 | 1.02 | 0.789 | 1.03 | 0.821 | 0.824 | 0.907 | 0.847 | 0.458 | 0.325 | 0.415 | 0.399 | 0.264 | 0.767 | 0.911 | 0.859 | 0.841
NCI-H1651 | 0.811 | 0.794 | 0.913 | 0.599 | 0.92 | 0.44 | 0.433 | 0.533 | 0.487 | 0.42 | 0.626 | 0.588 | 0.423 | 0.625 | 0.685 | 0.774 | 0.88 | 0.585
NCI-H2347 | 0.335 | 0.51 | 0.41 | 0.495 | 0.624 | 0.659 | 0.748 | 0.807 | 0.732 | 0.628 | 0.958 | 0.793 | 0.633 | 0.783 | 0.371 | 0.504 | 0.421 | 0.421
NCI-H1944 | 0.757 | 0.804 | 0.774 | 0.727 | 0.722 | 0.619 | 0.414 | 0.531 | 0.58 | 0.347 | 0.327 | 0.319 | 0.322 | 0.31 | 0.364 | 0.381 | 0.445 | 0.485
NCI-H1734 | 0.16 | 0.257 | 0.188 | 0.178 | 0.197 | 0.489 | 0.582 | 0.614 | 0.539 | 0.508 | 0.472 | 0.477 | 0.411 | 0.44 | 0.599 | 0.586 | 0.616 | 0.684
201T | 1.01 | 1.01 | 0.963 | 1.01 | 1.01 | 0.592 | 0.639 | 0.561 | 0.698 | 0.668 | 0.678 | 0.669 | 0.68 | 0.695 | 0.629 | 0.696 | 0.751 | 0.754
NCI-H1792 |  | 0.484 | 0.452 | 0.321 | 0.444 | 0.613 | 0.574 | 0.648 | 0.604 | 0.317 | 0.247 | 0.281 | 0.235 | 0.385 | 0.743 | 0.889 | 0.677 | 0.83
PC-3 [JPC-3] | 0.556 | 0.676 | 0.808 | 0.733 | 0.724 | 0.742 | 0.872 | 0.927 | 0.697 | 0.656 | 0.794 | 0.834 | 0.733 | 0.73 | 0.784 | 0.783 | 0.808 | 0.809
HCC-827 | 0.647 | 0.487 | 0.606 | 0.401 | 0.738 | 0.224 | 0.293 | 0.239 | 0.241 | 0.93 | 1.01 | 1.14 | 0.983 | 0.908 | 0.678 | 0.805 | 0.76 | 0.842
LXF-289 | 0.63 | 0.666 | 0.778 | 0.699 | 0.794 | 1.1 | 1.07 | 1.07 | 0.937 | 0.71 | 0.748 | 0.801 | 0.763 | 0.777 | 0.723 | 0.856 | 0.767 | 0.785
RERF-LC-KJ | 1.12 | 1.19 | 1.38 | 0.96 | 1.12 | 1.04 | 1.19 | 1.06 | 1.03 | 0.468 | 0.586 | 0.735 | 0.538 | 0.515 | 0.663 | 0.637 | 0.618 | 0.633
ABC-1 | 0.67 | 0.445 | 0.504 |  | 0.498 | 0.66 | 0.84 | 0.47 | 0.195 | 0.502 | 0.683 | 0.648 | 0.626 | 0.769 | 0.491 | 0.477 | 0.282 | 0.154
